According to PMC9866191, “Novel 9-Benzylaminoacridine Derivatives as Dual Inhibitors of Phosphodiesterase 5 and Topoisomerase II for the Treatment of Colon Cancer” (Molecules, 2023):

Key:
Format in all cases: cell-based
[1] = tested on: panel of 60 human tumor cell lines; assay: NCI 60-cell line one-dose screen (mean); conditions: mean of the 60 cell lines, single dose 10^−5 M, read-out: Mean % Growth Inhibition
Procedure: (§1) The newly synthesized compounds were screened for their in vitro anticancer activity at the Developmental Therapeutic Program (DTP) of the National Cancer Institute (NCI). The screening involved a panel of 60 human tumor cell lines consisting of 9 tissue types to screen for potential anti-cancer agents. The primary screening of submitted compounds was performed by testing a single dose (10^−5 M) in the full NCI-60 panel. The detailed % inhibition by the tested compounds against the 60 cell lines is shown in Tables S1–S3 in the Supporting Information.

NCI-H226 = assay: NCI-60 one-dose screen; conditions: Homo sapiens; NCI-H226, Non-small cell lung panel; single dose 10^−5 M; read-out: Growth inhibition %
Procedure: as §1

NCI/ADR-RES = assay: NCI-60 one-dose screen; conditions: Homo sapiens, Ovarian Cancer panel, single dose 10^−5 M, read-out: Growth inhibition %
Procedure: as §1

ACHN = assay: NCI-60 one-dose screen; conditions: Homo sapiens, Renal Cancer panel, single dose 10^−5 M, read-out: Growth inhibition %
Procedure: as §1

OVCAR-3 = assay: NCI-60 one-dose screen; conditions: Homo sapiens; OVCAR-3, Ovarian Cancer panel; single dose 10^−5 M; read-out: Growth inhibition %
Procedure: as §1

SK-OV-3 = assay: NCI-60 one-dose screen; conditions: Homo sapiens; SK-OV-3, Ovarian Cancer panel; single dose 10^−5 M; read-out: Growth inhibition %
Procedure: as §1

OVCAR-5 = assay: NCI-60 one-dose screen; conditions: Homo sapiens; OVCAR-5, Ovarian Cancer panel; single dose 10^−5 M; read-out: Growth inhibition %
Procedure: as §1

MDA-MB-231/ATCC = assay: NCI-60 one-dose screen; conditions: Homo sapiens, Breast Cancer panel, single dose 10^−5 M, read-out: Growth inhibition %
Procedure: as §1

OVCAR-8 = assay: NCI-60 one-dose screen; conditions: Homo sapiens; OVCAR-8, Ovarian Cancer panel; single dose 10^−5 M; read-out: Growth inhibition %
Procedure: as §1

COLO 205 = assay: NCI-60 one-dose screen; conditions: Homo sapiens; COLO 205, Colon Cancer panel; single dose 10^−5 M; read-out: Growth inhibition %
Procedure: as §1

RXF 393 = assay: NCI-60 one-dose screen; conditions: Homo sapiens; RXF 393, Renal Cancer panel; single dose 10^−5 M; read-out: Growth inhibition %
Procedure: as §1

SNB-19 = assay: NCI-60 one-dose screen; conditions: Homo sapiens; SNB-19, CNS Cancer panel; single dose 10^−5 M; read-out: Growth inhibition %
Procedure: as §1

CAKI-1 = assay: NCI-60 one-dose screen; conditions: Homo sapiens; CAKI-1, Renal Cancer panel; single dose 10^−5 M; read-out: Growth inhibition %
Procedure: as §1

K-562 = assay: NCI-60 one-dose screen; conditions: Homo sapiens, K562; K-562, Leukemia panel; single dose 10^−5 M; read-out: Growth inhibition %
Procedure: as §1

U251 = assay: NCI-60 one-dose screen; conditions: Homo sapiens, U-251; U251, CNS Cancer panel; single dose 10^−5 M; read-out: Growth inhibition %
Procedure: as §1

SK-MEL-5 = assay: NCI-60 one-dose screen; conditions: Homo sapiens; SK-MEL-5, Melanoma panel; single dose 10^−5 M; read-out: Growth inhibition %
Procedure: as §1

SNB-75 = assay: NCI-60 one-dose screen; conditions: Homo sapiens; SNB-75, CNS Cancer panel; single dose 10^−5 M; read-out: Growth inhibition %
Procedure: as §1

NCI-H23 = assay: NCI-60 one-dose screen; conditions: Homo sapiens; NCI-H23, Non-small cell lung panel; single dose 10^−5 M; read-out: Growth inhibition %
Procedure: as §1

T-47D = assay: NCI-60 one-dose screen; conditions: Homo sapiens, T47D, Breast Cancer panel, single dose 10^−5 M, read-out: Growth inhibition %
Procedure: as §1

SN12C = assay: NCI-60 one-dose screen; conditions: Homo sapiens, Renal Cancer panel, single dose 10^−5 M, read-out: Growth inhibition %
Procedure: as §1

HOP-62 = assay: NCI-60 one-dose screen; conditions: Homo sapiens; HOP-62, Non-small cell lung panel; single dose 10^−5 M; read-out: Growth inhibition %
Procedure: as §1

HCC-2998 = assay: NCI-60 one-dose screen; conditions: Homo sapiens; HCC-2998, Colon Cancer panel; single dose 10^−5 M; read-out: Growth inhibition %
Procedure: as §1

DU-145 = assay: NCI-60 one-dose screen; conditions: Homo sapiens; DU-145, Prostate Cancer panel; single dose 10^−5 M; read-out: Growth inhibition %
Procedure: as §1

SK-MEL-2 = assay: NCI-60 one-dose screen; conditions: Homo sapiens; SK-MEL-2, Melanoma panel; single dose 10^−5 M; read-out: Growth inhibition %
Procedure: as §1

UACC-62 = assay: NCI-60 one-dose screen; conditions: Homo sapiens; UACC-62, Melanoma panel; single dose 10^−5 M; read-out: Growth inhibition %
Procedure: as §1

UO-31 = assay: NCI-60 one-dose screen; conditions: Homo sapiens; UO-31, Renal Cancer panel; single dose 10^−5 M; read-out: Growth inhibition %
Procedure: as §1

HOP-92 = assay: NCI-60 one-dose screen; conditions: Homo sapiens; HOP-92, Non-small cell lung panel; single dose 10^−5 M; read-out: Growth inhibition %
Procedure: as §1

MDA-MB-435 = assay: NCI-60 one-dose screen; conditions: Homo sapiens; MDA-MB-435, Melanoma panel; single dose 10^−5 M; read-out: Growth inhibition %
Procedure: as §1

A549/ATCC = assay: NCI-60 one-dose screen; conditions: Homo sapiens, Non-small cell lung panel, single dose 10^−5 M, read-out: Growth inhibition %
Procedure: as §1

OVCAR-4 = assay: NCI-60 one-dose screen; conditions: Homo sapiens; OVCAR-4, Ovarian Cancer panel; single dose 10^−5 M; read-out: Growth inhibition %
Procedure: as §1

SF-295 = assay: NCI-60 one-dose screen; conditions: Homo sapiens; SF-295, CNS Cancer panel; single dose 10^−5 M; read-out: Growth inhibition %
Procedure: as §1

| Compound | inhibition at 10 µM [1] [%] | inhibition at 10 µM (NCI-H226) [%] | inhibition at 10 µM (NCI/ADR-RES) [%] | inhibition at 10 µM (ACHN) [%] | inhibition at 10 µM (OVCAR-3) [%] | inhibition at 10 µM (SK-OV-3) [%] | inhibition at 10 µM (OVCAR-5) [%] | inhibition at 10 µM (MDA-MB-231/ATCC) [%] | inhibition at 10 µM (OVCAR-8) [%] | inhibition at 10 µM (COLO 205) [%] | inhibition at 10 µM (RXF 393) [%] | inhibition at 10 µM (SNB-19) [%] | inhibition at 10 µM (CAKI-1) [%] | inhibition at 10 µM (K-562) [%] | inhibition at 10 µM (U251) [%] | inhibition at 10 µM (SK-MEL-5) [%] | inhibition at 10 µM (SNB-75) [%] | inhibition at 10 µM (NCI-H23) [%] | inhibition at 10 µM (T-47D) [%] | inhibition at 10 µM (SN12C) [%] | also measured |
| --- | --- | --- | --- | --- | --- | --- | --- | --- | --- | --- | --- | --- | --- | --- | --- | --- | --- | --- | --- | --- | --- |
| COc1ccc(CNc2c3ccccc3nc3ccccc23)cc1 [Compound 7, Acridin-9-yl-(4-methoxybenzyl)-amine] | 63.2 | 48.6 | 61.2 | 81.2 | 51.9 | 46.2 | 53.6 | 52.6 | 72.3 | 88.4 | 72.4 | 66 | 70.7 | 93 | 63.5 | 37.8 | 38.2 | 61.2 | 55.1 | 67.8 | inhibition at 10 µM (HOP-62): 46.1%; inhibition at 10 µM (HCC-2998): 61.4%; inhibition at 10 µM (DU-145): 52%; inhibition at 10 µM (SK-MEL-2): 39.9%; inhibition at 10 µM (UACC-62): 44.2%; inhibition at 10 µM (UO-31): 77.9%; inhibition at 10 µM (HOP-92): 75.5%; inhibition at 10 µM (MDA-MB-435): 59.8%; inhibition at 10 µM (A549/ATCC): 71.1%; inhibition at 10 µM (OVCAR-4): 59.7%; inhibition at 10 µM (SF-295): 60.9% |
| Fc1ccc(CNc2c3ccccc3nc3ccccc23)cc1F [Compound 22, Acridin-9-yl-(3,4-difluorobenzyl)-amine] | 64.8 | 52.4 | 72.4 | 80.7 | 31.1 | 44.3 | 55.4 | 65.2 | 67.9 | 83.9 | 92.6 | 67.1 | 74.7 | 87.7 | 69.7 | 33.8 | 33.8 | 64.8 | 52.1 | 70.3 | inhibition at 10 µM (HOP-62): 48.7%; inhibition at 10 µM (HCC-2998): 97.8%; inhibition at 10 µM (DU-145): 60.5%; inhibition at 10 µM (SK-MEL-2): 10.6%; inhibition at 10 µM (UACC-62): 40%; inhibition at 10 µM (UO-31): 84.5%; inhibition at 10 µM (HOP-92): 109%; inhibition at 10 µM (MDA-MB-435): 50.8%; inhibition at 10 µM (A549/ATCC): 70.9%; inhibition at 10 µM (OVCAR-4): 64.6%; inhibition at 10 µM (SF-295): 70.2% |
| Fc1ccc(CNc2c3ccccc3nc3ccccc23)cc1 [Compound 10, Acridin-9-yl-(4-fluorobenzyl)-amine] | 72.3 | 48.2 | 70.3 | 87.5 | 61.3 | 60 | 61.5 | 61.7 | 77.7 | 92.5 | 99.8 | 67.6 | 74.5 | 95.2 | 74.1 | 57.5 | 57.9 | 68.3 | 68.9 | 74.3 | inhibition at 10 µM (HOP-62): 57%; inhibition at 10 µM (HCC-2998): 81.7%; inhibition at 10 µM (DU-145): 65.1%; inhibition at 10 µM (SK-MEL-2): 56.2%; inhibition at 10 µM (UACC-62): 49.8%; inhibition at 10 µM (UO-31): 86.5%; inhibition at 10 µM (HOP-92): 82.8%; inhibition at 10 µM (MDA-MB-435): 65.2%; inhibition at 10 µM (A549/ATCC): 76.3%; inhibition at 10 µM (OVCAR-4): 66.8%; inhibition at 10 µM (SF-295): 72.4% |
| c1csc(-c2ccc(CNc3c4ccccc4nc4ccccc34)cc2)c1 [Compound 24, Acridin-9-yl-(4-thiophen-2-yl-benzyl)-amine] | 96.9 | 31 | 88.8 | 41.4 | 90.5 | 35 | 32.9 | 61.7 | 44.4 | 94.9 | 114 | 53.8 | 64.5 | 140 | 173 | 191 | 63.9 | 61.8 | 28.1 | 36.8 | inhibition at 10 µM (HOP-62): 45.4%; inhibition at 10 µM (HCC-2998): 187%; inhibition at 10 µM (DU-145): 38.3%; inhibition at 10 µM (SK-MEL-2): 19.2%; inhibition at 10 µM (UACC-62): 35.5%; inhibition at 10 µM (UO-31): 72%; inhibition at 10 µM (HOP-92): 102%; inhibition at 10 µM (MDA-MB-435): 183%; inhibition at 10 µM (A549/ATCC): 73.3%; inhibition at 10 µM (OVCAR-4): 84.7%; inhibition at 10 µM (SF-295): 84.2% |
